Experiments:
FOXO6 mRNA = FOXO6 mRNA expression in KPC tumors (RNA-seq, qRT-PCR); assay type: in vivo, KPC mice; conditions: vs intratumor exposure
Protocol: Pancreas cancer tissues samples or adjacent, uninvolved normal pancreas from vehicle or metarrestin-treated KPC animals collected at 0, 3, and 9 h after last dose of 25 mg/kg metarrestin were homogenized in PureLink Lysis Buffer (PureLink RNA Mini Kit, ThermoFisher Scientific Waltham, MA) at 4 °C using a TissueLyser II bead mill (Qiagen, Valencia, CA, manufactured by Retsch, Newtown, PA). Total RNA was isolated using the Life Technologies PureLink® RNA Mini Kit, quantified on a NanoDrop 1000 spectrophotometer (ThermoFisher Scientific, Waltham, MA). […]
Total RNA libraries were prepared using the Illumina TruSeq® Stranded Total RNA LT (with Ribo-Zero™Human/Mouse/Rat) kit according the manufacturer’s instructions. […] Sequencing output ranged from 89 to 132 million reads per sample. Adapter trimming and base filtering was done using Trimmomatic software version 0.3, and the trimmed reads were aligned to mouse reference genome (GRCm38/mm10) and Ensembl annotation (version 70) using TopHat2 version 2.0.8.
A total of 450 ng of total RNA was used for single-strand complementary DNA synthesis using a SuperScript III First-Strand kit (Invitrogen, Carlsbad, CA). […] Reaction products were read in a Bio-Rad CFX96 Touch real-time PCR detection system (Bio-Rad Laboratories, Hercules, CA). […]

cleaved caspase 3 = assay: Cleaved caspase 3 immunohistochemistry in KPC tumors; assay type: in vivo, KPC mice; conditions: 25 mg/kg by gavage (PO) for 14 days
Source text: To arrive at markers driven by metarrestin exposure, we next subjected untreated and metarrestin-treated KPC tumors and matched normal pancreata to unbiased gene expression profiling using RNA-sEq. […] Thus, FOXA1 and FOXO6 may provide leads for future predictive biomarker development, assist in determination of the minimally efficacious dose, and add additional insight into the mechanism of action of metarrestin.
Suppl. Fig. 7. […] Nuclear cleaved caspase 3 expression levels in metarrestin-treated KPC tumors. Representative images of cleaved caspase 3 immunohistochemistry in tumors of KPC mice treated with vehicle (top) or 25mg/kg metarrestin for 14 days (bottom). Images 20×, inset 40×.

In the case of `N=c1c2c(-c3ccccc3)c(-c3ccccc3)n(Cc3ccccc3)c2ncn1[C@H]1CC[C@H](O)CC1` [metarrestin, Trans-4-(7-benzyl-4-imino-5,6-diphenyl-4,7-dihydro-3H-pyrrolo[2,3-d]pyrimidin-3-yl) cyclohexanol], the “FOXO6 mRNA expression in KPC tumors” value (FOXO6 mRNA) is reported as “Dose-dependent normalization” and the “cell death in KPC tumors (nuclear cleaved caspase 3)” value (cleaved caspase 3) is reported as “does not induce cell death”.

Reference: paper PMC6267684, “Pharmacokinetic evaluation of the PNC disassembler metarrestin in wild-type and Pdx1-Cre;LSL-Kras^G12D/+;Tp53^R172H/+ (KPC) mice, a genetically engineered model of pancreatic cancer” (Cancer Chemotherapy and Pharmacology, 2018)
